Assay results from patent US20180179524A1, “COMPOSITIONS AND METHODS FOR INHIBITING CELL PROLIFERATION” (President and Fellows of Harvard College, priority 2015, published 2018).

Tested on: Tsc2−/− MEFs
Test: Proliferation of Tsc2-/- MEFs relative to Tsc2+/+ MEFs treated with compounds (FIG. 9)
Assay type: cell-based
Experimental: FIG. 9 is a series of panels, panels A-E showing TSC2 loss confers sensitivity to CCNT1, RNGTT, or CDK11 loss of function. Panel A is a schematic of the methods disclosed herein. […] Panel B represents data corresponding to the CDK9/CDK11 inhibitor JWD07 (5 μM). Panel C represents data corresponding to the CDK2/CDK9/CDK11 inhibitor AT7915 (2 μM). Panel D represents data corresponding to the RNGTT/IMPDH inhibitor Mizoribine (2.5 μM). Panel E represents data corresponding to the mTORC1 inhibitor Rapamycin (20 nM).

In the case of `NC(=O)c1ncn([C@@H]2O[C@H](CO)[C@@H](O)[C@H]2O)c1O` [Mizoribine], the “proliferation of Tsc2−/− MEFs relative to Tsc2+/+ MEFs” value (2.5 μM, FIG. 9 panel D) is reported as “selectively reduce proliferation”, the “cytotoxic effect on Tsc2−/− cells” value (JWD07 5 μM, AT7915 2 μM, Mizoribine 2.5 μM) is reported as “exert a cytotoxic effect” and the “selective effects on cell viability in Tsc2−/− cells compared with rapamycin” value (JWD07 5 μM, AT7915 2 μM, Mizoribine 2.5 μM vs Rapamycin 20 nM) is reported as “superior to rapamycin”.
